Assay results reported in patent publication US20260258369A1, “GENERATION OF BRANCHING URETERIC BUD AND COLLECTING DUCT ORGANOIDS FROM HUMAN PLURIPOTENT STEM CELLS” (The Brigham and Women's Hospital, Inc., priority 2023, published 2026).
Entries after “also recorded” stand apart in the source; their conditions may differ.

Columns and labels:
[1] = system: V-type ATPase; experiment: Transwell open-circuit voltage and calculated current in FOXI1-induced (doxycycline-treated) CD cells; assay type: cell-based, human; details: open circuit transwell, amiloride 10 μM
[2] = molecular target: T1, ENaC (Homo sapiens, UniProt P37088+P51168+P51170); details: amiloride 10 μM, open circuit
T1 sequence (P37088 1-669): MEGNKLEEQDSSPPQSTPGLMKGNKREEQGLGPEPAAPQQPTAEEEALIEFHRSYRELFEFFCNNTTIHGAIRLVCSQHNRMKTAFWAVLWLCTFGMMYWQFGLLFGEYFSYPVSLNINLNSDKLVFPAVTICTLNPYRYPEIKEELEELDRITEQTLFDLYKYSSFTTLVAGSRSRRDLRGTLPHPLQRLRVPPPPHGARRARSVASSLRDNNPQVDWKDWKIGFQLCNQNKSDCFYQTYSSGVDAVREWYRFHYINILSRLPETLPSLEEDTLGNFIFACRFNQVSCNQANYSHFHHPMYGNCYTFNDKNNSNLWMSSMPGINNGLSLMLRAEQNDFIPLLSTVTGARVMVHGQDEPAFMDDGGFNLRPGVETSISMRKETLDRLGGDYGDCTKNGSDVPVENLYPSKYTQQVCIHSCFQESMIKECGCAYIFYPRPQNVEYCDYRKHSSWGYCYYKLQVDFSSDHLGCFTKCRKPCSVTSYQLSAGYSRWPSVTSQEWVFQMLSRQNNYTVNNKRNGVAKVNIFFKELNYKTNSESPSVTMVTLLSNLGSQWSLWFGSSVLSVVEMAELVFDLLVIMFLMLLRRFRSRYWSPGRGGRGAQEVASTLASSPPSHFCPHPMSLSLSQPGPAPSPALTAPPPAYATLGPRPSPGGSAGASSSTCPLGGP
T1 sequence (P51168 1-640): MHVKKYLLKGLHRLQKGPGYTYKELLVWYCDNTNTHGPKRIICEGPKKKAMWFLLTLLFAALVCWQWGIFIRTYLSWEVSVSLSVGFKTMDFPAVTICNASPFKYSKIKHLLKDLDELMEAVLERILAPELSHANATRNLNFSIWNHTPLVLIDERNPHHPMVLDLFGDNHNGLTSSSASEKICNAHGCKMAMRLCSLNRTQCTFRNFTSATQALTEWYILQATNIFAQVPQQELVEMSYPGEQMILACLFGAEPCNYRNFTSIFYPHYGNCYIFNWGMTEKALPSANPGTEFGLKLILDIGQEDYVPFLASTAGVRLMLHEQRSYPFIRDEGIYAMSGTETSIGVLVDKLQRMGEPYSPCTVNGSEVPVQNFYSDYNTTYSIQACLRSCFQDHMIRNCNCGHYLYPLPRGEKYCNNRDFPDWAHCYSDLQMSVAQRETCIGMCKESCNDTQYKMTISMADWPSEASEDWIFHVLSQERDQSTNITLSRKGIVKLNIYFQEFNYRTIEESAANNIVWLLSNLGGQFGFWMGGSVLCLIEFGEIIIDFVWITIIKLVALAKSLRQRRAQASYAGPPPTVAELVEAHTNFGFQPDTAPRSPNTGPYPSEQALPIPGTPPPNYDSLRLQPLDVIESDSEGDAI
T1 sequence (P51170 1-649): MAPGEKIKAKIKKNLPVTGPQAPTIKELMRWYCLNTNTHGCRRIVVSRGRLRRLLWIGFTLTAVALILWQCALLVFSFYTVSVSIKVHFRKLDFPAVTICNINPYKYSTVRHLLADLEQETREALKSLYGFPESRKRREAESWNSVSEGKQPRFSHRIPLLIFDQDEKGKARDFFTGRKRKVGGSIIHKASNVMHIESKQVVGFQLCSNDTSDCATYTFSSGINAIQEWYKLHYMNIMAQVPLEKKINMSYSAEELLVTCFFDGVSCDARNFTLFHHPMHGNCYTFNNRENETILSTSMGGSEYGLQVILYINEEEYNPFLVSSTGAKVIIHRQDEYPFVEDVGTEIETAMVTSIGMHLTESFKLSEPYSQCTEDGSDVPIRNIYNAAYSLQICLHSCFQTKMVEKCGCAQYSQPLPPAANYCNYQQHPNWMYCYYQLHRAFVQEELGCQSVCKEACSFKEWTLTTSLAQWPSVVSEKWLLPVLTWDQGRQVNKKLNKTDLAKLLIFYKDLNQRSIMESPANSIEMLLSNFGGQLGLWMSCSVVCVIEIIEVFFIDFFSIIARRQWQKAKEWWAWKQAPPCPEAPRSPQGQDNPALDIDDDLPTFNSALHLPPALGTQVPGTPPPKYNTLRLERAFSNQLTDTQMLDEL

[3] = molecular target: T2, V-type ATPase (Homo sapiens, UniProt P27449); experiment: Ussing chamber short-circuit current in FOXI1-induced CD cells; details: closed circuit
[4] = molecular target: T1, ENaC; experiment: Ussing chamber short-circuit current (Isc) recordings in CD organoid-derived cells; assay type: cell-based; design: while the alpha subunit (SCNN1A) was expressed at lower levels; we confirmed expression at the protein level using an antibody specific to SCNN1B; the beta and gamma subunits were most abundant transcriptionally; endogenous in cells; host or cells: 2D cell line derived from hPSC-derived collecting duct organoids (principal cells), grown on transwell / Snapwell inserts
[5] = molecular target: T2, V-type ATPase; experiment: Transwell open-circuit voltage and calculated current in FOXI1-induced (doxycycline-treated) CD cells; assay type: cell-based; details: bafilomycin 10 nM, added after amiloride, open circuit
[6] = system: CD organoid-derived cells; experiment: Aldosterone response of transepithelial current in CD organoid-derived cells; assay type: cell-based, human; details: 24 hours; for increase in amiloride-sensitive current: aldosterone 10-100 nM, no dexamethasone

## N=C(N)NC(=O)c1nc(Cl)c(N)nc1N [amiloride]
[1]
  amiloride sensitivity of FOXI1-induced cells: largely lost sensitivity
[2]
  transepithelial resistance: raising the transepithelial resistance
[2]; within several minutes
  transepithelial voltage and current: completely abolished
[3]
  short-circuit current in FOXI1-induced cells, amiloride: small increase in current
[4]; amiloride 100 μM, Ussing chamber
  residual short-circuit current after raising the concentration: eliminated the small amount of residual current; also recorded: completely abolished
[4]; read-out: inhibition of short-circuit current
  inhibition at 10 µM: > 95%

## CO/C1=C\C(C)=C\[C@@H](C)[C@@H](O)[C@@H](C)C/C(C)=C/C=C/[C@H](OC)[C@@H]([C@@H](C)[C@@H](O)[C@H](C)[C@@]2(O)C[C@@H](O)[C@H](C)[C@@H](C(C)C)O2)OC1=O [bafilomycin, bafilomycin-A1]
[5]
  voltage and calculated current in FOXI1-induced cells: completely suppressed
[3]
  short-circuit current in FOXI1-induced cells, bafilomycin: near complete inhibition of the current

## C[C@]12CCC(=O)C=C1CC[C@@H]1[C@@H]2[C@@H](O)C[C@]2(C=O)[C@@H](C(=O)CO)CC[C@@H]12 [Aldosterone, aldosterone]
[6]
  increase in amiloride-sensitive current: ~ 2.5 fold
[6]; listed as aldosterone
  increase in amiloride-sensitive current: approximately 2.5 fold
[6]; varying concentrations of aldosterone
  transepithelial voltage and current: dose-dependent increase
